Measured values taken from patent US10252987B2, “Type of antiviral compound” (Institute of Medicinal Biotechnology, Chinese Academy of …, priority 2015, dated 2019).

System: HCV
Assay: anti-HCV activity assay in cell culture (HCV RNA by one-step quantitative RT-PCR)
Format: cell-based
Details: Hepatitis C virus, Huh7.5, 96 h, compound at 10 μmol/L; Huh7.5 cells infected with HCV virus particles; cultured 96 hrs; HCV RNA in cells vs virus control group; read-out: percent inhibition (%)
Protocol: The assay results of anti-HCV activity of the compound synthesized according to the present invention in cell culture are shown in Table 1, wherein the molecular weight is calculated by ChemBioDraw 12.0 software from the molecular structure of each compound.
100 μL Huh7.5 cells were seeded in 96-well cell culture plate to 1×10^5/mL density, cultured in an incubator at 37° C. under the condition of 5% CO2 and saturated humidity for 6 hrs. Huh7.5 cells were then infected by viral solution containing HCV virus particles, and solutions of compound of the present invention at a concentration of 10 μmol/L liquid were added respectively, cultured for further 96 hrs, and then total RNA was extracted from the cells. Amount of HCV RNA in cells was determined by one-step quantitative RT-PCR, and compared to RNA levels of the virus control group to calculate the inhibition rate of compounds on HCV.

Row | SMILES | inhibition at 10 µM [%]
1 | CN(C)CNc1ccc(C#N)c(CN2CCN(c3ccc(C(C)(C)C)cc3)CC2)c1 [VI-33, 2-(4-(4-tert-butylphenyl)piperazin-1-yl)methyl-4-((N,N-dimethylamino)methyl)amino-benzonitrile] | 90
2 | CN1CCN(c2ccc(C#N)c(CN3CCN(c4ccc(Br)cc4)CC3)c2)CC1 [VI-34, 2-(4-(4-bromophenyl)piperazin-1-yl)methyl-4-(4-methylpiperazin-1-yl)benzonitrile] | 91
3 | Cc1ccc(N2CCN(Cc3cc(N(C)CN4CCCCC4)ccc3C#N)CC2)cc1 [VI-36, 4-((methyl)((piperidin-1-yl)-methyl)amino)-2-(4-p-methylphenylpiperazin-1-yl)methylbenzonitrile] | 91
4 | Cc1ccc(N2CCN(Cc3cc(N(C)CN4CCCC4)ccc3C#N)CC2)cc1 [VI-37, 4-((methyl)((pyrrolidin-1-yl)-methyl)amino)-2-(4-p-methylphenylpiperazin-1-yl)methylbenzonitrile] | 87
5 | CN1CCN(c2ccc(C#N)c(CN3CCC(c4ccc(C(C)(C)C)cc4)CC3)c2)CC1 [VI-38, 4-(4-methylpiperazin-1-yl)-2-(4-(4-tert-butylphenyl)piperidin-1-yl)methylbenzonitrile] | 80

Same assay, conditions: compound at 10 μmol/L; Huh7.5 cells infected with HCV virus particles; cultured 96 hrs; HCV RNA in cells vs virus control group

Row | SMILES | percent inhibition (%)
6 | COc1ccc(N2CCN(Cc3cc(N(C)CCN(C)C)ccc3C#N)CC2)cc1 [VI-31, 4-(N,N′,N′-trimethyl-1,2-ethylenediamin-1-yl)-2-(4-p-methoxyphenylpiperazin-1-yl)methylbenzonitrile] | 91
7 | CN(C)CCCN(C)c1ccc(C#N)c(CN2CCN(c3ccc(C4CCCCC4)cc3)CC2)c1 [VI-32, 4-(N,N′,N′-trimethyl1,3-propanediamin-1-yl)-2-(4-p-cyclohexylphenylpiperazin-1-yl)methylbenzonitrile] | 80
8 | CN(C)CCN(C)c1ccc(C#N)c(CN2CCN(c3ccc(Cl)cc3)CC2)c1 [VI-35, 4-(N,N′,N′-trimethyl-1,2-ethylenediamin-1-yl)-2-(4-p-chlorophenylpiperazin-1-yl)methylbenzonitrile] | 99
9 | CN(C)CCN(C)c1ccc(C#N)c(CN2CCC(c3ccc(Cl)cc3)CC2)c1 [VI-39, 4-(N,N′,N′-trimethyl-1,2-ethylenediamin-1-yl)-2-(4-p-chlorophenylpiperidin-1-yl)methylbenzonitrile] | 88
10 | CN(C)C1CCN(c2ccc(C#N)c(CN3CCN(c4ccc(Cl)cc4)CC3)c2)C1 (stereo not shown) [VI-44, 4-((3-dimethylamino)pyrrolidin-1-yl)-2-(4-p-chlorophenylpiperazin-1-yl)methylbenzonitrile] | 89
11 | COc1ccc(N2CCN(Cc3cc(N(C)CCN(C)C)ccc3C#N)CC2)cc1OC [VI-45, 4-(N,N′,N′-trimethyl-1,2-ethylenediamin-1-yl)-2-(3,4-dimethoxyphenylpiperazin-1-yl)methylbenzonitrile] | 92
12 | COc1ccc(N2CCN(Cc3cc(NC(C)CN4CCCC4)ccc3C#N)CC2)cc1 (stereo not shown) [VI-46, 4-(1-(pyrrolidin-1-yl)propyl-2-yl)amino-2-(4-p-methoxyphenylpiperazin-1-yl)methylbenzonitrile] | 95
13 | CN(C)CCN(C)c1ccc(C#N)c(CN2CCN(c3ccc(OC(F)(F)F)cc3)CC2)c1 [VI-47, 4-(N,N′,N′-trimethyl-1,2-ethylenediamin-1-yl)-2-(4-trifluoromethoxyphenylpiperazin-1-yl)methylbenzonitrile] | 93
